Measurements reported in patent US10040802B2, “Thienopyrazine inhibitors of IRAK4 activity” (MERCK SHARP & DOHME CORP., priority 2015, dated 2018).
Counter-ions that a name gives are not always drawn.

Molecular target: GST tagged IRAK4 (Homo sapiens (Human), UniProt Q9NWZ3)
Experiment: IRAK4 Kinase Assay (IMAP fluorescence polarization)
Assay type: biochemical
Settings: 0.5 nM GST tagged IRAK4, 100 μM ATP, 30 minutes at 25° C.
Description: The kinase activity of IRAK4 is determined by its ability to catalyze the phosphorylation of a fluorescent polypeptide substrate. The extent of phosphorylation is measured using the IMAP technology (Molecular Devices) where the phosphorylated fluorescent substrate binds to the large M(III)-based nanoparticles which reduces the rotational speed of the substrate and thus increases its fluorescent polarization (FP).
20 μL reaction mixture contains 10 mM TriHCl, pH 7.2, 0.5 nM GST tagged IRAK4 (SignalChem), 100 nM fluorescent peptide substrate (RP7030, Molecular Devices), 100 μM ATP, 1 mM DDT, 1 mM MgCl2, and 0.01% Tween 20. The reaction is initiated by the addition of ATP. After incubation for 30 minutes at 25° C., 60 μL of Progressive IMAP Reagent (Molecular Devices) is added to stop the reaction. Change in RP7030's FP is determined by a FP reader (Analyst HT, LJL BioSystems).

Chain of GST tagged IRAK4 (Q9NWZ3 whole entry): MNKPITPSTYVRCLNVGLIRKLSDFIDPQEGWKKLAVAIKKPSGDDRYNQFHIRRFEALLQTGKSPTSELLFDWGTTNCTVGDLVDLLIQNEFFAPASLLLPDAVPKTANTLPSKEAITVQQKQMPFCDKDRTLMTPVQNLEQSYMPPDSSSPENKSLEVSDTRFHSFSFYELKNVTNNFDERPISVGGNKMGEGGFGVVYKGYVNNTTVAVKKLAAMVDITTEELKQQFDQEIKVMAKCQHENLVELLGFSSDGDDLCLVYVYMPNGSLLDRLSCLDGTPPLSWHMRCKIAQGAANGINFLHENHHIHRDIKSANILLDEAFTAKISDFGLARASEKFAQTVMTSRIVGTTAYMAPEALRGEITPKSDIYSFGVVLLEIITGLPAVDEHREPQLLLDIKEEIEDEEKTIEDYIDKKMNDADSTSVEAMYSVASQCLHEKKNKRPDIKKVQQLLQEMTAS

IC50 [nM]	Compound
595	O=C(Nc1ccccc1Cl)c1csc2ncc(N3CCCNCC3)nc12 [Example 91, N-(2-chlorophenyl)-2-(1,4-diazepan-1-yl)thieno[2,3-b]-pyrazine-7-carboxamide trifluoroacetate]
1410	N[C@@H]1[C@H](Nc2cnc3scc(C(=O)Nc4ccsc4Cl)c3n2)CCCC1(F)F [Example 60, 2-{[(1R,2R)-2-amino-3,3-difluorocyclohexyl]amino}-N-(2-chloro-thiophen-3-yl) thieno[2,3-b] pyrazine-7-carboxamide trifluoroacetate]
292	N#Cc1ccccc1NC(=O)c1csc2ncc(N3CCNCC3)nc12 [Example 86, N-(2-cyanophenyl)-2-piperazin-1-yl-thieno[2,3-b]-pyrazine-7-carboxamide trifluoroacetate]
307	O=C(Nc1cscc1Cl)c1csc2ncc(N3C[C@@H]4CC[C@H]3CN4)nc12 (single isomer, unassigned) [Example 108, N-(4-chlorothiophen-3-yl)-2-[(1S,4S)- or (1R,4R)-2,5-diazabicyclo-[2.2.2]oct-2-yl]-thieno[2,3-b]-pyrazine-7-carboxamide trifluoroacetate]
173	N#Cc1ccccc1NC(=O)c1csc2ncc(N3C[C@@H]4CC[C@H]3CN4)nc12 (single isomer, unassigned) [Example 97, N-(2-cyanophenyl)-2-[(1S,4S)- or (1R,4R)-2,5-diazabicyclo-[2.2.2]oct-2-yl]thieno[2,3-b]-pyrazine-7-carboxamide trifluoroacetate]
310	N#Cc1cscc1NC(=O)c1csc2ncc(N3C[C@@H]4CC[C@H]3CN4)nc12 (single isomer, unassigned) [Example 65, N-(4-cyanothiophen-3-yl)-2-[(1S,4S)- or (1R,4R)-2,5-diazabicylo[2.2.2]oct-2-yl]thieno[2,3-b] pyrazine-7-carboxamide formate]
86	N[C@H]1CCCC[C@H]1Nc1cnc2scc(C(=O)Nc3ccccc3C(F)(F)F)c2n1 [Example 81, 2-{[(1R,2S)-2-aminocyclo-hexyl]amino}-N-[2-(trifluoromethyl)phenyl]thieno[2,3-b]pyrazine-7-carboxamide trifluoroacetate]
3650	O=C(Nc1ccsc1C(F)(F)F)c1csc2ncc(N3C[C@@H]4CC[C@H]3CN4)nc12 (single isomer, unassigned) [Example 74, 2-[(1S,4S)- or (1R,4R)-2,5-diazabicyclo [2.2.2]oct-2-yl]-N-[2-(trifluoromethyl)thiophen-3-yl] thieno[2,3-b] pyrazine-7-carboxamide trifluoroacetate]
3630	O=C(Nc1ccccc1C(F)F)c1csc2ncc(N3CCCNCC3)nc12 [Example 103, 2-(1,4-diazepan-1-yl)-N-[2-(difluoromethyl)phenyl]thieno[2,3-b]pyrazine-7-carboxamide trifluoroacetate]
0.8	N[C@H]1CCCC[C@H]1Nc1cnc2scc(C(=O)Nc3ccccc3Cl)c2n1 [Example 92, 2-{(1R,2S)-2-aminocyclohexyl]-amino}-N-(2-chlorophenyl)-thieno[2,3-b]-pyrazine-7-carboxamide trifluoroacetate]
545	N[C@@H]1[C@H](Nc2cnc3scc(C(=O)Nc4ccccc4Cl)c3n2)CCCC1(F)F [Example 101, 2-{[(1R,2R)-2-amino-3,3-difluorocyclohexyl]-amino}-N-(2-chlorophenyl)-thieno[2,3-b]-pyrazine-7-carboxamide trifluoroacetate]
2580	N[C@@H]1[C@H](Nc2cnc3scc(C(=O)Nc4ccccc4C(F)F)c3n2)CCCC1(F)F [Example 106, 2-{[(1R,2R)-2-amino-3,3-difluorocyclohexyl]-amino}-N-[2-(difluoromethyl)phenyl]thieno[2,3-b]pyrazine-7-carboxamide trifluoroacetate]
1560	O=C(Nc1ccccc1Cl)c1csc2ncc(N3C[C@@H]4CC[C@H]3CN4)nc12 (single isomer, unassigned) [Example 99, N-(2-chlorophenyl)-2-[(1S,4S)- or (1R,4R)-2,5-diazabicyclo-[2.2.2]oct-2-yl]thieno[2,3-b]-pyrazine-7-carboxamide trifluoroacetate]
324	O=C(Nc1ccsc1Br)c1csc2ncc(N3C[C@@H]4CC[C@H]3CN4)nc12 (single isomer, unassigned) [Example 63, N-(2-bromothiophen-3-yl)-2-[(1S,4S)- or (1R,4R)-2,5-diazabicylo[2.2.2]oct-2-yl]thieno[2,3-b] pyrazine-7-carboxamide trifluoroacetate]
330	N[C@@H]1[C@H](Nc2cnc3scc(C(=O)Nc4cscc4C(F)F)c3n2)CCCC1(F)F [Example 67, 2-{[(1R,2R)-2-amino-3,3-difluorocyclohexyl]amino}-N-[4-(difluoromethyl)thiophen-3-yl] thieno[2,3-b] pyrazine-7-carboxamide trifluoroacetate]
224	N#Cc1sccc1NC(=O)c1csc2ncc(N3C[C@H]4CC[C@@H]3CN4)nc12 (single isomer, unassigned) [Example 70, N-(2-cyanothiophen-3-yl)-2-[(1S,4S)- or (1R,4R)-2,5-diazabicyclo[2.2.2]oct-2-yl]thieno[2,3-b] pyrazine-7-carboxamide trifluoroacetate]

More lines, now with the values behind:

Compound	IC50 [nM]
Cn1cc(NC(=O)c2csc3ncc(N4C[C@H]5CC[C@@H]4CN5)nc23)c(Br)n1 (single isomer, unassigned) [Example 20, N-(3-bromo-1-methyl-1H-pyrazol-4-yl)-2-[(1S,4S)- or (1R,4R)-2,5-diazabicyclo[2.2.2]oct-2-yl]thieno[2,3-b] pyrazine-7-carboxamide trifluoroacetate]	19
Cn1cc(NC(=O)c2csc3ncc(N4CCCNCC4)nc23)c(C(F)F)n1 [Example 14, 2-(1,4-diazepan-1-yl)-N-[3-(difluoromethyl)-1-methyl-1H-pyrazol-4-yl]thieno[2,3-b] pyrazine-7-carboxamide trifluoroacetate]	5
Cn1cc(NC(=O)c2csc3ncc(N4CCCNCC4)nc23)c(Br)n1 [Example 21, N-(3-bromo-1-methyl-1H-pyrazol-4-yl)-2-(1,4-diazepan-1-yl)thieno[2,3-b] pyrazine-7-carboxamide trifluoroacetate]	15
Cn1cc(NC(=O)c2csc3ncc(N[C@@H]4CCCNC4)nc23)c(C(F)(F)F)n1 [Example 4, trifluoroacetate]	0.8
O=C(Nc1cscc1C(F)F)c1csc2ncc(N3C[C@H]4CC[C@@H]3CN4)nc12 (single isomer, unassigned) [Example 59, 2-[(1S,4S)- or (1R,4R)-2,5-diazabicyclo [2.2.2]oct-2-yl]-N-[4-(difluoromethyl)thiophen-3-yl] thieno[2,3-b] pyrazine-7-carboxamide trifluoroacetate]	21
Cn1cc(NC(=O)c2csc3ncc(N[C@@H]4CCCC[C@@H]4O)nc23)c(C(F)F)n1 [Example 10, N-[3-(difluoromethyl)-1-methyl-1H-pyrazol-4-yl]-2-{[(1R,2S)-2-hydroxycyclohexyl]amino}thieno[2,3-b] pyrazine-7-carboxamide]	30
Cn1cc(NC(=O)c2csc3ncc(N[C@@H]4CCCC[C@@H]4N)nc23)c(C#N)n1 [Example 37, 2-{[(1R,2S)-2-aminocyclohexyl]amino}-N-(3-cyano-1-methyl-1H-pyrazol-4-yl)thieno[2,3-b] pyrazine-7-carboxamide trifluoroacetate]	0.4
Cn1cc(NC(=O)c2csc3ncc(N[C@@H]4CCCC(F)(F)[C@@H]4N)nc23)c(C#N)n1 [Example 36, 2-{[(1R,2R)-2-amino-3,3-difluorocyclohexyl]amino}-N-(3-cyano-1-methyl-1H-pyrazol-4-yl]thieno[2,3-b] pyrazine-7-carboxamide trifluoroacetate]	50
Cn1cc(NC(=O)c2csc3ncc(N[C@@H]4CCCC(F)(F)[C@@H]4N)nc23)c(Cl)n1 [Example 43, 2-{[(1R,2R)-2-amino-3,3-difluorocyclohexyl]amino}-N-(3-chloro-1-methyl-1H-pyrazol-4-yl)thieno[2,3-b] pyrazine-7-carboxamide trifluoroacetate]	64
Cn1cc(NC(=O)c2csc3ncc(N4C[C@H]5CC[C@@H]4CN5)nc23)c(C(F)F)n1 (single isomer, unassigned) [Example 23, 2-[(1S,4S)- or (1R,4R)-2,5-diazabicyclo[2.2.2]oct-2-yl]-N-[3-(difluoromethyl)-1-methyl-1H-pyrazol-4-yl]thieno[2,3-b] pyrazine-7-carboxamide trifluoroacetate]	1
Cn1cc(NC(=O)c2csc3ncc(N4C[C@@H]5CC[C@H]4CN5)nc23)c(Br)n1 (single isomer, unassigned) [Example 19, N-(3-bromo-1-methyl-1H-pyrazol-4-yl)-2-[(1S,4S)- or (1R,4R)-2,5-diazabicyclo[2.2.2]oct-2-yl]thieno[2,3-b] pyrazine-7-carboxamide trifluoroacetate]	70
N#Cc1cscc1NC(=O)c1csc2ncc(N[C@@H]3CCCC[C@@H]3N)nc12 [Example 57, 2-{[(1R,2S)-2-amino-cyclohexyl]amino}-N-(4-cyanothiophen-3-yl)thieno[2,3-b] pyrazine-7-carboxamide trifluoroacetate]	0.5
Cn1cc(NC(=O)c2csc3ncc(N4C[C@H]5CC[C@@H]4CN5)nc23)c(C#N)n1 (single isomer, unassigned) [Example 27, N-(3-cyano-1-methyl-1H-pyrazol-4-yl)-2-[(1S,4S)- or (1R,4R)-2,5-diazabicyclo[2.2.2]oct-2-yl]thieno[2,3-b] pyrazine-7-carboxamide trifluoroacetate]	37
